# Experimental data: ChEMBL document CHEMBL3885861, “Open TG-GATES”
# Organism: Rattus norvegicus
# Experiment: Open TG-GATES - Regimen: Single
# Type: toxicity, organism-based, Sprague-Dawley
# Design: regimen Single, gender Male, age 6 weeks
# Settings: in vivo, po, route gavage; for TP / gamma-GTP / ALP / ALT / AST / BUN / CRE / DBIL / GLC / K / LDH / Na / PL / RALB / TBIL / TC / TG: tissue Plasma; for APTT / Bas / Eos / Fbg / Hb / Ht / Lym / MCHC / MCV / Mono / PT / Plat / RBC / Ret / WBC: tissue Blood; for KIDNEY_L / KIDNEY_R / KIDNEY_TOTAL: tissue Kidney; for LIVER: tissue Liver
# [1] = 0 mg/kg, 24 h, dose level Control
# [2] = 600 mg/kg, 24 h, dose level Low
smiles,measurement,setting,value
O=C1NC(=O)C(c2ccccc2)(c2ccccc2)N1 [PHENYTOIN],TP,[1],5.6 g/dL
same,gamma-GTP,[1],1 IU/L
same,TERMINAL_BW,"600 mg/kg, 3 h, dose level Low",210.6 g
same,APTT,"600 mg/kg, 3 h, dose level Low",16.8 s
same,Bas,"600 mg/kg, 3 h, dose level Low",0.2%
same,Eos,"600 mg/kg, 3 h, dose level Low",0.8%
same,Fbg,"600 mg/kg, 3 h, dose level Low",264.8 mg/dL
same,Hb,"600 mg/kg, 3 h, dose level Low",13.1 g/dL
same,Ht,"600 mg/kg, 3 h, dose level Low",39.2%
same,Lym,"600 mg/kg, 3 h, dose level Low",79%
same,MCHC,"600 mg/kg, 3 h, dose level Low",33.5%
same,MCV,"600 mg/kg, 3 h, dose level Low",62.3 fL
same,Mono,"600 mg/kg, 3 h, dose level Low",2.4%
same,PT,"600 mg/kg, 3 h, dose level Low",14 s
same,Plat,"600 mg/kg, 3 h, dose level Low",116 x10_4/uL
same,RBC,"600 mg/kg, 3 h, dose level Low",629.4 x10_4/ul
same,Ret,"600 mg/kg, 3 h, dose level Low",8%
same,KIDNEY_L,"600 mg/kg, 3 h, dose level Low",0.9 g
same,KIDNEY_R,"600 mg/kg, 3 h, dose level Low",1 g
same,KIDNEY_TOTAL,"600 mg/kg, 3 h, dose level Low",1.9 g
same,LIVER,"600 mg/kg, 3 h, dose level Low",8.8 g
same,ALP,"600 mg/kg, 3 h, dose level Low",1512 IU/L
same,ALT,"600 mg/kg, 3 h, dose level Low",36.4 IU/L
same,AST,"600 mg/kg, 3 h, dose level Low",78.6 IU/L
same,BUN,"600 mg/kg, 3 h, dose level Low",10 mg/dL
same,CRE,"600 mg/kg, 3 h, dose level Low",0.2 mg/dL
same,DBIL,"600 mg/kg, 3 h, dose level Low",0.012 mg/dL
same,GLC,"600 mg/kg, 3 h, dose level Low",186.6 mg/dL
same,K,"600 mg/kg, 3 h, dose level Low",3.9 meq/L
same,LDH,"600 mg/kg, 3 h, dose level Low",113.2 IU/L
same,Na,"600 mg/kg, 3 h, dose level Low",141.8 meq/L
same,PL,"600 mg/kg, 3 h, dose level Low",143.4 mg/dL
same,RALB,"600 mg/kg, 3 h, dose level Low",2.5 g/dL
same,TBIL,"600 mg/kg, 3 h, dose level Low",0.052 mg/dL
same,TC,"600 mg/kg, 3 h, dose level Low",82 mg/dL
same,TG,"600 mg/kg, 3 h, dose level Low",36.2 mg/dL
same,TP,"600 mg/kg, 3 h, dose level Low",5.4 g/dL
same,gamma-GTP,"600 mg/kg, 3 h, dose level Low",1.2 IU/L
same,TERMINAL_BW,"600 mg/kg, 6 h, dose level Low",208.2 g
same,APTT,"600 mg/kg, 6 h, dose level Low",18.6 s
same,Bas,"600 mg/kg, 6 h, dose level Low",0.4%
same,Eos,"600 mg/kg, 6 h, dose level Low",0.8%
same,Fbg,"600 mg/kg, 6 h, dose level Low",274.8 mg/dL
same,Hb,"600 mg/kg, 6 h, dose level Low",13 g/dL
same,Ht,"600 mg/kg, 6 h, dose level Low",38.2%
same,Lym,"600 mg/kg, 6 h, dose level Low",77.6%
same,MCHC,"600 mg/kg, 6 h, dose level Low",33.9%
same,MCV,"600 mg/kg, 6 h, dose level Low",61 fL
same,Mono,"600 mg/kg, 6 h, dose level Low",2.6%
same,PT,"600 mg/kg, 6 h, dose level Low",14.3 s
same,RBC,"600 mg/kg, 6 h, dose level Low",626.4 x10_4/ul
same,Ret,"600 mg/kg, 6 h, dose level Low",7.9%
same,WBC,"600 mg/kg, 6 h, dose level Low",89.4 x10_2/uL
same,KIDNEY_L,"600 mg/kg, 6 h, dose level Low",1 g
same,KIDNEY_R,"600 mg/kg, 6 h, dose level Low",0.9 g
same,KIDNEY_TOTAL,"600 mg/kg, 6 h, dose level Low",1.9 g
same,LIVER,"600 mg/kg, 6 h, dose level Low",8.7 g
same,ALP,"600 mg/kg, 6 h, dose level Low",1510.8 IU/L
same,ALT,"600 mg/kg, 6 h, dose level Low",30.8 IU/L
same,AST,"600 mg/kg, 6 h, dose level Low",71.8 IU/L
same,BUN,"600 mg/kg, 6 h, dose level Low",8.6 mg/dL
same,CRE,"600 mg/kg, 6 h, dose level Low",0.2 mg/dL
same,DBIL,"600 mg/kg, 6 h, dose level Low",0.01 mg/dL
same,GLC,"600 mg/kg, 6 h, dose level Low",181.8 mg/dL
same,K,"600 mg/kg, 6 h, dose level Low",4.2 meq/L
same,LDH,"600 mg/kg, 6 h, dose level Low",89 IU/L
same,Na,"600 mg/kg, 6 h, dose level Low",142.8 meq/L
same,PL,"600 mg/kg, 6 h, dose level Low",135.6 mg/dL
same,RALB,"600 mg/kg, 6 h, dose level Low",2.5 g/dL
same,TBIL,"600 mg/kg, 6 h, dose level Low",0.052 mg/dL
same,TC,"600 mg/kg, 6 h, dose level Low",74.8 mg/dL
same,TG,"600 mg/kg, 6 h, dose level Low",26 mg/dL
same,TP,"600 mg/kg, 6 h, dose level Low",5.3 g/dL
same,gamma-GTP,"600 mg/kg, 6 h, dose level Low",1.4 IU/L
same,TERMINAL_BW,"600 mg/kg, 9 h, dose level Low",206.7 g
same,APTT,"600 mg/kg, 9 h, dose level Low",16 s
same,Bas,"600 mg/kg, 9 h, dose level Low",0.2%
same,Eos,"600 mg/kg, 9 h, dose level Low",1%
same,Fbg,"600 mg/kg, 9 h, dose level Low",288.8 mg/dL
same,Hb,"600 mg/kg, 9 h, dose level Low",13.3 g/dL
same,Ht,"600 mg/kg, 9 h, dose level Low",39.5%
same,Lym,"600 mg/kg, 9 h, dose level Low",73.6%
same,MCHC,"600 mg/kg, 9 h, dose level Low",33.7%
same,MCV,"600 mg/kg, 9 h, dose level Low",60.6 fL
same,Mono,"600 mg/kg, 9 h, dose level Low",2.4%
same,PT,"600 mg/kg, 9 h, dose level Low",14.3 s
same,Plat,"600 mg/kg, 9 h, dose level Low",109.6 x10_4/uL
same,RBC,"600 mg/kg, 9 h, dose level Low",653.4 x10_4/ul
same,Ret,"600 mg/kg, 9 h, dose level Low",7.3%
same,WBC,"600 mg/kg, 9 h, dose level Low",74.9 x10_2/uL
same,KIDNEY_L,"600 mg/kg, 9 h, dose level Low",0.9 g
same,KIDNEY_R,"600 mg/kg, 9 h, dose level Low",0.9 g
same,KIDNEY_TOTAL,"600 mg/kg, 9 h, dose level Low",1.8 g
same,LIVER,"600 mg/kg, 9 h, dose level Low",7.7 g
same,ALP,"600 mg/kg, 9 h, dose level Low",1491.4 IU/L
same,ALT,"600 mg/kg, 9 h, dose level Low",29.6 IU/L
same,AST,"600 mg/kg, 9 h, dose level Low",72.4 IU/L
same,BUN,"600 mg/kg, 9 h, dose level Low",8.2 mg/dL
same,CRE,"600 mg/kg, 9 h, dose level Low",0.2 mg/dL
same,DBIL,"600 mg/kg, 9 h, dose level Low",0.016 mg/dL
same,GLC,"600 mg/kg, 9 h, dose level Low",186 mg/dL
same,K,"600 mg/kg, 9 h, dose level Low",4 meq/L
same,LDH,"600 mg/kg, 9 h, dose level Low",80.8 IU/L
same,Na,"600 mg/kg, 9 h, dose level Low",141.2 meq/L
same,PL,"600 mg/kg, 9 h, dose level Low",125.8 mg/dL
same,RALB,"600 mg/kg, 9 h, dose level Low",2.5 g/dL
same,TBIL,"600 mg/kg, 9 h, dose level Low",0.064 mg/dL
same,TC,"600 mg/kg, 9 h, dose level Low",69.6 mg/dL
same,TG,"600 mg/kg, 9 h, dose level Low",18 mg/dL
same,TP,"600 mg/kg, 9 h, dose level Low",5.4 g/dL
same,gamma-GTP,"600 mg/kg, 9 h, dose level Low",1 IU/L
same,TERMINAL_BW,[2],217.3 g
same,APTT,[2],16.9 s
same,Bas,[2],0.2%
same,Eos,[2],1.2%
same,Fbg,[2],286 mg/dL
same,Hb,[2],13.7 g/dL
same,Ht,[2],40.1%
same,Lym,[2],78.4%
same,MCHC,[2],34.2%
same,MCV,[2],62.9 fL
same,Mono,[2],2.4%
same,PT,[2],14.5 s
same,Plat,[2],120.7 x10_4/uL
same,RBC,[2],637.4 x10_4/ul
same,Ret,[2],7.3%
same,WBC,[2],101.8 x10_2/uL
same,KIDNEY_L,[2],1 g
same,KIDNEY_R,[2],1 g
same,KIDNEY_TOTAL,[2],1.9 g
same,LIVER,[2],9.7 g
same,ALP,[2],1621 IU/L
same,ALT,[2],34.6 IU/L
same,AST,[2],67.6 IU/L
same,BUN,[2],14 mg/dL
same,CRE,[2],0.2 mg/dL
same,DBIL,[2],0.022 mg/dL
same,GLC,[2],177.6 mg/dL
same,K,[2],4.4 meq/L
same,LDH,[2],123.6 IU/L
same,Na,[2],141.6 meq/L
same,PL,[2],143 mg/dL
same,RALB,[2],2.6 g/dL
same,TBIL,[2],0.04 mg/dL
same,TC,[2],75.4 mg/dL
same,TG,[2],95.8 mg/dL
same,TP,[2],5.6 g/dL
